US20170216296A1, “METHODS OF TREATING HYPERGLYCEMIA” (Concert Pharmaceuticals, Inc., priority 2014, published 2017)

Experiments:
HbAlc [1] = test: Phase 2 placebo-controlled clinical trial, HbAlc in whole blood; format: in vivo, human; conditions: for least square mean HbAlc value: 600 mg twice daily, preliminary, FIG. 1
Method: A Phase 2 placebo-controlled clinical trial of Compound (V) was conducted in patients with type 2 diabetic kidney disease and macroalbuminuria. The purpose of the trial was to compare Compound (V) to placebo in terms of safety and efficacy with respect to measures of renal function such as urinary albumin to creatinine ratio, serum creatinine levels, and estimated glomerular filtration rate. HbAlc was measured but was not an intended endpoint of the trial. Thus, while the study was controlled for other medications, it was not controlled for anti-glycemic medications nor were the placebo and treated groups matched for baseline HbAlc levels.
All patients enrolled in the clinical trial were concurrently treated with angiotensin modulators. The clinical trial consists of three parts, two of which were completed and a third part that is on-going. Part 1 was a double-blind, parallel, two-arm, placebo-controlled study evaluating the safety and efficacy of 600 mg of Compound (V) twice daily for 24 weeks. 182 patients were enrolled in this first part of the trial. Part 2 was a blinded 24-week extension study in which all patients who completed Part 1 were eligible to continue receiving 600 mg of Compound (V) or placebo twice daily. 143 patients were enrolled in this part of the clinical trial and have completed dosing. 123 of the 143 patients that were enrolled in Part 2 of the clinical trial completed Part 2. The combined 48 weeks of data from Parts 1 and 2 of the clinical trial have been analyzed. 102 patients enrolled in Part 3 which is a 48 week open-label extension study that is on-going. All patients who completed Part 2 were eligible to receive 600 mg of Compound (V) twice daily.
The key criteria for patients to be included in the clinical trial were (a) eGFR from 23 to 89 mL/min/1.73 m2, a measure of kidney function which indicates mild to moderately severe type 2 diabetic kidney disease; (b) having been on a stable angiotensin modulation regimen for a minimum of four weeks prior to initiating screening and nine weeks prior to initiating dosing; (c) blood pressure less than or equal to 145/90 mm Hg; (d) glycosylated hemoglobin Alc (HbAlc) less than or equal to 10.5%; and (e) UACR greater than or equal to 200 mg/g in male patients and 300 mg/g in female patients, ratios of albumin to creatinine that are indicative of substantial kidney damage in men and women, but not more than 5,000 mg/g, a ratio indicative of severe kidney disease. HbAlc in whole blood samples was measured by ion-exchange chromatography using a TOSOH HLC-723G8 HPLC analyzer.
The procedure is similar to the one described in the Laboratory Procedure Manual of the Centers for Disease Control and Prevention. See www.cdc.gov/nchs/data/nhanes/nhanes_11_12/GHB_met_G_Tosoh_G8.pdf. The TOSOH instrument can reliably detect HbAlc levels in the range of 4.0-16.8%.
Patients were sampled at weeks 0, 12, 24, 36 and 48 weeks (see FIG. 1). The value at 0 weeks was calculated as the mean of values recorded on Days −28, −7 and −1. In other words, the patients were tested 4 weeks before the trial, one week before the trial and one day before. The mean value of the measurements was recorded as Day 0 for the trial.

HbAlc [2] = conditions: 100 patients with type 2 diabetes; cited from earlier work

| SMILES | lowering of HbAlc in the treated group relative to placebo (HbAlc [1]; Part 1 and Part 2 (48 weeks), p=0.0001) | least square mean HbAlc value (HbAlc [1]; after Part 1 and Part 2 of the trial (48 weeks)) | least square mean HbAlc value (HbAlc [1]; beginning of the trial (week 0, mean of Days -28, -7 and -1), patients with type 2 diabetic kidney disease and macroalbuminuria) | effect on hemoglobin glycosylation (HbAlc [1]; group receiving compound, sampled at weeks 0, 12, 24, 36 and 48) | drop in AlC (HbAlc [1]; overall group change from baseline, FIG. 2 (week 12), placebo 0.23 increase, statistically significant) | patients with lower HbAlc after 12 weeks (HbAlc [1]; week 12 change from baseline, number of patients/patients in arm, FIG. 2, placebo 33/79) | effect on HbAlC (HbAlc [2]) |
| --- | --- | --- | --- | --- | --- | --- | --- |
| [2H]C([2H])([2H])[C@H](O)C([2H])([2H])CCCn1c(=O)c2c(ncn2C)n(C)c1=O [Compound (V)] | statistically significant | 7.1 | 7.7 | positive effect | 0.35 | 57/83 |  |
| CC(=O)CCCCn1c(=O)c2c(ncn2C)n(C)c1=O [Pentoxifylline] |  |  |  |  |  |  | no effect |
